Here are results for ten compounds from US11691949B2, “Quinoline sulfonamide compounds and their use as antibacterial agents” (OTAGO INNOVATION LIMITED, priority 2017, dated 2023).

In brackets after ≈: the same amount, converted by molar mass. Read-outs that look alike come from different tables or passages of the source. Where only a bound is given, the exact number is not on record here.

Type in all cases: cell-based
Assay [1] has as its system E. coli ATCC 10596. In words: MIC by broth microdilution, E. coli. The note with it: Escherichia coli, read-out: E. coli ATCC 10536 MIC. The procedure, abridged: (§1)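 Overnight cultures diluted to ~5×10^5 cfu/mL final; S. aureus in TSB and CAMHB, E. coli in LB and CAMHB, zinc sulphate to 50 μM final as required; two-fold serial dilutions. MIC = lowest concentration with no growth by OD600 after 24 h, 37° C, 200 rpm. MBC by Miles-Misra drop-plate viability count.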

The subject of assay [2] is S. uberis ATCC 19436. Kind of assay: MIC by broth microdilution, S. uberis. The conditions noted are these: Streptococcus uberis, read-out: S. uberis ATCC 19436 MIC. The procedure, abridged: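 Streptococcus uberis ATCC 19436 was tested in Todd Hewitt Broth by broth microdilution in 96-well flat bottom plates, in biological triplicate. Overnight cells were diluted to OD600 of approximately 0.025, giving about 5×10^5 cfu/mL in the wells. Compounds were serially diluted two-fold to 200 μl, incubated 24 h at 37° C. and 200 rpm, and the MIC was taken from OD600.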

The subject of assay [3] is S. aureus ATCC 6538. In words: MIC by broth microdilution, S. aureus. The conditions noted are these: Staphylococcus aureus, read-out: S. aureus ATCC 6538 MIC. In outline:
as §1

The mark [4] stands for this setting: ATCC 10536 / ATCC 10596, No Zinc.
[5] abbreviates: ATCC 10536 / ATCC 10596, Zinc (50 μM).

As for `CN(C)Cc1ccc2cccc(NS(=O)(=O)c3cccc(O)c3)c2n1` [ZDR163, N-(2-((Dimethylamino)methyl)quinolin-8-yl)-3-hydroxybenzenesulfonamide], the MIC in assay [1] (setting [4]) was greater than 256 µg/mL; in assay [1] (setting [5]) it was greater than 256 µg/mL; in assay [2] (ATCC19436, No Zinc), greater than 256 µg/mL; in assay [2] (ATCC19436, Zinc (50 μM)), 8 µg/mL (≈ 22.4 µM); in assay [3] (ATCC6538, No Zinc), greater than 256 µg/mL; in assay [3] (ATCC6538, Zinc (50 μM)) it was greater than 256 µg/mL.

`CN(C)Cc1ccc2cccc(NS(=O)(=O)c3ccc(O)cc3)c2n1` [ZDR164, N-(2-((Dimethylamino)methyl)quinolin-8-yl)-4-hydroxybenzenesulfonamide]: the MIC in assay [1] (setting [4]) was greater than 256 µg/mL; in assay [1] (setting [5]), greater than 256 µg/mL; in assay [2] (ATCC19436, No Zinc) it was greater than 256 µg/mL; in assay [2] (ATCC19436, Zinc (50 μM)), greater than 256 µg/mL; in assay [3] (ATCC6538, No Zinc), greater than 256 µg/mL; in assay [3] (ATCC6538, Zinc (50 μM)), greater than 256 µg/mL.

As to `O=S(=O)(Nc1cccc2ccc(CO)nc12)c1ccc(C(F)(F)F)cc1` [ZDR176, N-(2-(Hydroxymethyl)quinolin-8-yl)-4-(trifluoromethyl)benzenesulfonamide], the MIC in assay [1] (setting [4]) is greater than 256 µg/mL; in assay [1] (setting [5]) it was greater than 256 µg/mL; in assay [2] (ATCC19436, No Zinc), greater than 256 µg/mL; in assay [2] (ATCC19436, Zinc (50 μM)) it was 0.5 µg/mL (≈ 1.31 µM); in assay [3] (ATCC6538, No Zinc) it was 4 µg/mL (≈ 10.5 µM); in assay [3] (ATCC6538, Zinc (50 μM)), 4 µg/mL (≈ 10.5 µM).

On to `CS(=O)(=O)NCCNCc1ccc2cccc(NS(=O)(=O)c3ccc(C(F)(F)F)cc3)c2n1` [ZDR180, N-(2-(((2-(Methylsulfonamido)ethyl)amino)methyl)quinolin-8-yl)-4-(trifluoromethyl)benzenesulfonamide], for which the MIC in assay [1] (setting [4]) is 128 µg/mL (≈ 255 µM); in assay [1] (setting [5]), greater than 256 µg/mL; in assay [2] (ATCC19436, No Zinc), greater than 256 µg/mL; in assay [2] (ATCC19436, Zinc (50 μM)) it was 0.5 µg/mL (≈ 0.995 µM); in assay [3] (ATCC6538, No Zinc) it was 64 µg/mL (≈ 127 µM); in assay [3] (ATCC6538, Zinc (50 μM)), 256 µg/mL (≈ 509 µM).

On to `O=S(=O)(NCCNCc1ccc2cccc(NS(=O)(=O)c3ccc(C(F)(F)F)cc3)c2n1)c1ccccc1` [ZDR181, N-(2-(((2-(Phenylsulfonamido)ethyl)amino)methyl)quinolin-8-yl)-4-(trifluoromethyl)benzenesulfonamide], for which the MIC was 64 µg/mL (≈ 113 µM) in assay [1] (setting [4]); greater than 256 µg/mL in assay [1] (setting [5]); greater than 256 µg/mL in assay [2] (ATCC19436, No Zinc); 0.5 µg/mL (≈ 0.886 µM) in assay [2] (ATCC19436, Zinc (50 μM)); 64 µg/mL (≈ 113 µM) in assay [3] (ATCC6538, No Zinc); greater than 256 µg/mL in assay [3] (ATCC6538, Zinc (50 μM)).

`NCc1ccc2cccc(NS(=O)(=O)c3ccc(C(F)(F)F)cc3)c2n1` [ZDR184, N-(2-(Aminomethyl)quinolin-8-yl)-4-(trifluoromethyl)benzenesulfonamide]: the MIC in assay [1] (setting [4]) was determined as 64 µg/mL (≈ 168 µM); in assay [1] (setting [5]), 128 µg/mL (≈ 336 µM); in assay [2] (ATCC19436, No Zinc), 32 µg/mL (≈ 83.9 µM); in assay [2] (ATCC19436, Zinc (50 μM)) it was 0.5 µg/mL (≈ 1.31 µM); in assay [3] (ATCC6538, No Zinc), 8 µg/mL (≈ 21 µM); in assay [3] (ATCC6538, Zinc (50 μM)) it was 4 µg/mL (≈ 10.5 µM).

Take `CC(=O)NCc1ccc2cccc(NS(=O)(=O)c3ccc(C(F)(F)F)cc3)c2n1` [ZDR185, N-((8-((4-(Trifluoromethyl)phenyl)sulfonamido)quinolin-2-yl)methyl)acetamide]: the MIC in assay [1] (setting [4]) was greater than 256 µg/mL; in assay [1] (setting [5]), greater than 256 µg/mL; in assay [2] (ATCC19436, No Zinc), greater than 256 µg/mL; in assay [2] (ATCC19436, Zinc (50 μM)) it was 0.125 µg/mL (≈ 0.295 µM); in assay [3] (ATCC6538, No Zinc), 256 µg/mL (≈ 605 µM); in assay [3] (ATCC6538, Zinc (50 μM)) it was 32 µg/mL (≈ 75.6 µM).

Take `CC(C)(C)OC(=O)N=C(NCc1ccc2cccc(NS(=O)(=O)c3ccc(C(F)(F)F)cc3)c2n1)NC(=O)OC(C)(C)C` [ZDR186, N-(2-(N,N′-Bis-Boc-Guanidinomethyl)quinolin-8-yl)-4-(trifluoromethyl)benzenesulfonamide]: the minimum inhibitory concentration (MIC) in assay [1] (setting [4]) is greater than 256 µg/mL; in assay [1] (setting [5]), greater than 256 µg/mL; in assay [2] (ATCC19436, No Zinc), greater than 256 µg/mL; in assay [2] (ATCC19436, Zinc (50 μM)), 0.25 µg/mL (≈ 0.401 µM); in assay [3] (ATCC6538, No Zinc), greater than 256 µg/mL; in assay [3] (ATCC6538, Zinc (50 μM)), greater than 256 µg/mL.

Turning to `N/C(=N\[N+](=O)[O-])NCc1ccc2cccc(NS(=O)(=O)c3ccc(C(F)(F)F)cc3)c2n1` [ZDR188, (E)-N-(2-((2-Nitroguanidino)methyl)quinolin-8-yl)-4-(trifluoromethyl)benzenesulfonamide], the MIC was greater than 256 µg/mL in assay [1] (setting [4]); greater than 256 µg/mL in assay [1] (setting [5]); greater than 256 µg/mL in assay [2] (ATCC19436, No Zinc); 0.5 µg/mL (≈ 1.07 µM) in assay [2] (ATCC19436, Zinc (50 μM)); greater than 256 µg/mL in assay [3] (ATCC6538, No Zinc); greater than 256 µg/mL in assay [3] (ATCC6538, Zinc (50 μM)).

As to `CN(C)Cc1ccc2cccc(NS(=O)(=O)c3ccccc3Cl)c2n1` [ZDR190, 2-Chloro-N-(2-((dimethylamino)methyl)quinolin-8-yl)benzenesulfonamide], the minimal inhibitory concentration (MIC) in assay [1] (setting [4]) was greater than 256 µg/mL; in assay [1] (setting [5]), greater than 256 µg/mL; in assay [2] (ATCC19436, No Zinc), 256 µg/mL (≈ 681 µM); in assay [2] (ATCC19436, Zinc (50 μM)), 1 µg/mL (≈ 2.66 µM); in assay [3] (ATCC6538, No Zinc), greater than 256 µg/mL; in assay [3] (ATCC6538, Zinc (50 μM)), greater than 256 µg/mL.
